Laboratory results reported in paper PMC8286840, “Identifying SARS-CoV-2 antiviral compounds by screening for small molecule inhibitors of Nsp3 papain-like protease” (Biochemical Journal, 2021).
Structures can show the parent of a compound that is named as a salt. Where two headings read alike, the source gives them in different places.

What was measured:
[1] = target: T1, SARS-CoV-2 PLpro (nsp3 1564–1878) (Severe acute respiratory syndrome coronavirus 2, UniProt P0DTD1); test: biochemical; design: FRET-quenched peptide (Pro3) cleavage by PLpro, 10 min pre-incubation, slope over 20 min, normalised to no-compound control; settings: low concentration screen, read-out: % of control remaining
[2] = target: T1, SARS-CoV-2 PLpro (nsp3 1564–1878); test: biochemical; design: FRET-quenched peptide (Pro3) cleavage by PLpro, 10 min pre-incubation, slope over 20 min, normalised to no-compound control; settings: high concentration screen, read-out: % of control remaining

## CN1[C@@H]2CC(=O)C[C@H]1[C@H](O)C2 [6-Hydroxytropinone]
[1]; Well no.=3639
  remaining activity at 1.25 µM: 99.8%
[2]; Well no.=3639
  remaining activity at 3.75 µM: 104%

## CCCCCCCCC(=O)NCc1cc(OC)c(O)cc1I [6-Iodonordihydrocapsaicin]
[1]; Well no.=5963
  remaining activity at 1.25 µM: 95.9%
[2]; Well no.=5963
  remaining activity at 3.75 µM: 99%

## CC(C)CCC[C@@H](C)[C@H]1CC[C@H]2[C@@H]3CC(=O)[C@H]4C[C@@H](O)CC[C@]4(C)[C@H]3CC[C@]12C [6-Ketocholestanol]
[1]; Well no.=6021
  remaining activity at 1.25 µM: 94.9%
[2]; Well no.=6021
  remaining activity at 3.75 µM: 86.6%

## Cc1cccc(C#Cc2ccccc2)n1 [6-Methyl-2-(phenylethynyl)pyridine hydrochloride]
[1]; Well no.=834
  remaining activity at 1.25 µM: 98.2%
[2]; Well no.=834
  remaining activity at 3.75 µM: 95%

## O=Nc1ccc2oc(=O)ccc2c1 [6-Nitroso-1,2-benzopyrone]
[1]; Well no.=1099
  remaining activity at 1.25 µM: 95.7%
[2]; Well no.=1099
  remaining activity at 3.75 µM: 104%

## OC[C@H]1O[C@@H](n2cnc3c(=S)nc[nH]c32)[C@H](O)[C@@H]1O [6-_Thioinosine]
[1]; Well no.=7724
  remaining activity at 1.25 µM: 99.8%
[2]; Well no.=7724
  remaining activity at 3.75 µM: 96.5%

## Cc1ccc2c(c1)C1(CCN(CCc3nc(-c4ccccc4)oc3C)CC1)OC(=O)N2 [6-methyl-1'-(2-(5-methyl-2-phenyloxazol-4-yl)ethyl)spiro[benzo[d][1,3]oxazine-4,4'-piperidin]-2(1H)-one]
[1]; Well no.=5915
  remaining activity at 1.25 µM: 93.5%
[2]; Well no.=5915
  remaining activity at 3.75 µM: 93.6%

## Nc1nc2ccccc2c2ccccc12 [6-phenanthridinamine]
[1]; Well no.=5389
  remaining activity at 1.25 µM: 106%
[2]; Well no.=5389
  remaining activity at 3.75 µM: 102%

## CN(C)CCSSCCNC(=O)C1CCN(C(=O)CSc2ccc(Cl)cc2)CC1 [6H05 (trifluoroacetate)]
[1]; Well no.=6658
  remaining activity at 1.25 µM: 103%
[2]; Well no.=6658
  remaining activity at 3.75 µM: 106%

## CCCCCCCCCCC/C=C/CCCCCC(=O)O [7(E)-Nonadecenoic acid]
[1]; Well no.=4366
  remaining activity at 1.25 µM: 105%
[2]; Well no.=4366
  remaining activity at 3.75 µM: 97.4%

## CCCCCCCCCCC/C=C\CCCCCC(=O)O [7(Z)-Nonadecenoic acid]
[1]; Well no.=4364
  remaining activity at 1.25 µM: 107%
[2]; Well no.=4364
  remaining activity at 3.75 µM: 100%

## CCCCCCCCCCC/C=C\C(C)(C)/C=C\CCCC(=O)O [7,7-Dimethyleicosadienoic acid]
[1]; Well no.=4313
  remaining activity at 1.25 µM: 101%
[1]; Well no.=4412
  remaining activity at 1.25 µM: 100%
[2]; Well no.=4313
  remaining activity at 3.75 µM: 99.2%
[2]; Well no.=4412
  remaining activity at 3.75 µM: 101%

## C[C@H](O)[C@H](O)C1=Nc2c(nc(N)[nH]c2=O)NC1 [7,8-Dihydro-L-biopterin]
[1]; Well no.=7401
  remaining activity at 1.25 µM: 110%
[2]; Well no.=7401
  remaining activity at 3.75 µM: 102%

## O=c1ccc2ccc(O)c(O)c2o1 [7,8-dihydroxy-2H-chromen-2-one]
[1]; Well no.=5782
  remaining activity at 1.25 µM: 105%
[2]; Well no.=5782
  remaining activity at 3.75 µM: 108%

## COc1cc2c(cc1-c1c(C)noc1C)ncc1[nH]c(=O)n([C@H](C)c3ccccn3)c12 [7-(3,5-dimethyl-4-isoxazolyl)-8-methoxy-1-[(1R)-1-(2-pyridinyl)ethyl]-1,3-dihydro-2H-imidazo[4,5-c]quinolin-2-one]
[1]; Well no.=5813
  remaining activity at 1.25 µM: 101%
[2]; Well no.=5813
  remaining activity at 3.75 µM: 102%

## CC(=O)OCC1=C(C(=O)O)N2C(=O)[C@@H](N)[C@H]2SC1 [7-Aminocephalosporanic acid]
[1]; Well no.=5286
  remaining activity at 1.25 µM: 98.5%
[2]; Well no.=5286
  remaining activity at 3.75 µM: 96%

## O=c1cc(-c2ccccc2)[nH]c2nc(Cl)ccc12 [7-Chloro-4-hydroxy-2-phenyl-1,8-naphthyridine]
[1]; Well no.=324
  remaining activity at 1.25 µM: 98.8%
[2]; Well no.=324
  remaining activity at 3.75 µM: 99.1%

## O=C(O)c1cc(O)c2ccc(Cl)cc2n1 [7-Chlorokynurenic acid]
[1]; Well no.=581
  remaining activity at 1.25 µM: 104%
[2]; Well no.=581
  remaining activity at 3.75 µM: 103%

## O=c1cc(-c2ccccc2)oc2cc(O)ccc12 [7-Hydroxyflavone]
[1]; Well no.=3293
  remaining activity at 1.25 µM: 97.8%
[2]; Well no.=3293
  remaining activity at 3.75 µM: 103%

## O=[N+]([O-])c1cccc2cn[nH]c12 [7-Nitroindazole]
[1]; Well no.=955
  remaining activity at 1.25 µM: 107%
[2]; Well no.=955
  remaining activity at 3.75 µM: 100%

## O=C(CCCCCCc1ccccc1)c1ncc(-c2ccccn2)o1 [7-phenyl-1-[5-(2-pyridinyl)-1,3-oxazol-2-yl]-1-heptanone]
[1]; Well no.=5997
  remaining activity at 1.25 µM: 92.2%
[2]; Well no.=5997
  remaining activity at 3.75 µM: 91.9%

## O=c1ccc2cc3ccoc3cc2o1 [7H-furo[3,2-g]chromen-7-one]
[1]; Well no.=5431
  remaining activity at 1.25 µM: 101%
[2]; Well no.=5431
  remaining activity at 3.75 µM: 104%

## CCCCC[C@H](O)/C=C/C=C/C=C/[C@H](O)C/C=C\CCCC(=O)O [8(R),15(S)-DIHETE all trans]
[1]; Well no.=4377
  remaining activity at 1.25 µM: 102%
[2]; Well no.=4377
  remaining activity at 3.75 µM: 105%

## CCCCC[C@H](O)/C=C/C=C\C=C\[C@@H](O)C/C=C\CCCC(=O)O [8(S),15(S)-DIHETE]
[1]; Well no.=4371
  remaining activity at 1.25 µM: 102%
[2]; Well no.=4371
  remaining activity at 3.75 µM: 99.4%

## CCCCC/C=C\C/C=C\C/C=C\CCCCCCC(=O)O [8(Z), 11(Z), 14(Z)-Eicosatrienoic Acid]
[1]; Well no.=4548
  remaining activity at 1.25 µM: 91.1%
[2]; Well no.=4548
  remaining activity at 3.75 µM: 96.4%

## CCCCCCCCCCC/C=C\CCCCCCC(=O)O [8(Z)-Eicosenoic acid]
[1]; Well no.=4404
  remaining activity at 1.25 µM: 102%
[2]; Well no.=4404
  remaining activity at 3.75 µM: 102%

## Cn1c(=O)c2c(nc(/C=C/c3cccc(Cl)c3)n2C)n(C)c1=O [8-(3-Chlorostyryl)caffeine]
[1]; Well no.=727
  remaining activity at 1.25 µM: 100%
[2]; Well no.=727
  remaining activity at 3.75 µM: 97.2%

## Nc1ncnc2c1nc(Sc1ccc(Cl)cc1)n2C1OC2COP(=O)(O)O[C@@H]2[C@@H]1O (stereo partly shown) [8-(4-Chlorophenylthio)-cAMP sodium]
[1]; Well no.=126
  remaining activity at 1.25 µM: 104%
[2]; Well no.=126
  remaining activity at 3.75 µM: 105%

## Nc1ncnc2c1nc(Br)n2[C@@H]1O[C@@H]2COP(=O)(O)O[C@H]2[C@H]1O [8-Bromo-cAMP sodium]
[1]; Well no.=129
  remaining activity at 1.25 µM: 108%
[2]; Well no.=129
  remaining activity at 3.75 µM: 111%

## Nc1nc2c(nc(Br)n2[C@@H]2O[C@@H]3COP(=O)(O)O[C@H]3[C@H]2O)c(=O)[nH]1 [8-Bromo-cGMP sodium]
[1]; Well no.=214
  remaining activity at 1.25 µM: 102%
[2]; Well no.=214
  remaining activity at 3.75 µM: 102%

## Cn1c(=O)c2[nH]c(C3CCCC3)nc2n(C)c1=O [8-Cyclopentyl-1,3-dimethylxanthine]
[1]; Well no.=723
  remaining activity at 1.25 µM: 98.4%
[2]; Well no.=723
  remaining activity at 3.75 µM: 101%

## CCCn1c(=O)c2[nH]c(C3CCCC3)nc2n(CCC)c1=O [8-Cyclopentyl-1,3-dipropylxanthine]
[1]; Well no.=675
  remaining activity at 1.25 µM: 93.6%
[2]; Well no.=675
  remaining activity at 3.75 µM: 97.1%

## Nc1nc2c([nH]c(=O)n2[C@H]2C[C@H](O)[C@@H](CO)O2)c(=O)[nH]1 [8-Hydroxy-2'-deoxyguanosine]
[1]; Well no.=7113
  remaining activity at 1.25 µM: 105%
[2]; Well no.=7113
  remaining activity at 3.75 µM: 105%

## COCc1nc2c([nH]1)c(=O)n(C)c(=O)n2CC(C)C [8-Methoxymethyl-3-isobutyl-1-methylxanthine]
[1]; Well no.=970
  remaining activity at 1.25 µM: 103%
[2]; Well no.=970
  remaining activity at 3.75 µM: 102%
